Source: ChEMBL document CHEMBL1147638, “(+/-)-cis-(6-Ethyl-tetrahydropyran-2-yl)-formic acid: a novel substance with antinociceptive properties” (2004)

How the values were obtained:
Mus musculus [1] = assay: Increase in antinociceptive activity in mouse after oral administration at the dose of 1 mg/kg in tail flick test; assay type: functional
Mus musculus [2] = assay: Increase in analgesic activity of compound after oral administration in mouse when compared with morphine in tail flick test; assay type: functional

For `CC[C@@H]1CCC[C@H](C(=O)O)O1`, the Increase (Mus musculus [1]) was 40% and the Increase (Mus musculus [2]) was 55%.
